Laboratory results as given in ChEMBL document CHEMBL5370556, “Optimization, and biological evaluation of 3-O-β-chacotriosyl betulinic acid amide derivatives as novel small-molecule Omicron” (Eur J Med Chem, 2023).
Activity calls are given as the source filed them. No cut-off for these calls is given here.

Columns and labels:
SARS-CoV-2 [1] = assay: Antiviral activity against luciferase-expressing pseudovirus encoding SARS-CoV-2 Omicron expressing S protein infected in human 293T/ACE2 cells assessed as reduction of viral growth measured after 48 hrs by luciferase assay; format: functional, organism-based; conditions: Severe acute respiratory syndrome coronavirus 2, 293T/ACE2, 48 h
[2] = Selectivity index, ratio of CC50 for human 293T/ACE2 cells to EC50 for SARS-CoV-2 Omicron; format: toxicity; conditions: read-out: Ratio CC50/EC50
[3] = biological target: Spike glycoprotein/Angiotensin-converting enzyme 2 (Severe acute respiratory syndrome coronavirus 2) (UniProt Q9BYF1+P0DTC2); assay: Inhibition of SARS-COV-2 S1 protein/human ACE2 receptor interaction at 20 uM by co-immunoprecipitation assay
[4] = Cytotoxicity against human 293T/ACE2 cells assessed as reduction in cell growth measured after 48 hrs by MTT assay; format: functional
[5] = Metabolic stability in rat liver microsomes assessed as intrinsic clearance measured upto 250 mins by LC-MS/MS analysis; format: ADME, Microsome; conditions: 4.167 h
SARS-CoV-2 [6] = assay: Antiviral activity against vesicular stomatitis virus glycoprotein expressing pseudovirus encoding SARS-CoV-2 infected in human 293T/ACE2 cells assessed as reduction of viral growth at 0.078 to 10 uM measured after 48 hrs by luciferase assay; format: functional, organism-based; conditions: Severe acute respiratory syndrome coronavirus 2, dose 0.078-10 µM
SARS-CoV-2 [7] = assay: Antiviral activity against luciferase-expressing pseudovirus encoding SARS-CoV-2 Omicron S/HIV infected in human 293T/ACE2 cells assessed as reduction of viral growth at 10 uM measured after 48 hrs by luciferase assay relative to control; format: functional, Severe acute respiratory syndrome coronavirus 2; set-up: scale not given: the % may be the effect or the level left
Spike glycoprotein = Spike glycoprotein (Severe acute respiratory syndrome coronavirus 2, UniProt P0DTC2); assay: Binding affinity to C-terminal 6His-tagged SARS-COV-2 recombinant S protein (Val16 to Arg685 residues) expressed in mammalian expression system assessed as dissociation constant by SPR analysis
SARS-CoV-2 [8] = assay: Antiviral activity against luciferase-expressing pseudovirus encoding SARS-CoV-2 Omicron expressing S protein infected in human 293T/ACE2 cells assessed as reduction of viral growth at 0.078 to 10 uM measured after 48 hrs by luciferase assay; format: functional, organism-based; conditions: Severe acute respiratory syndrome coronavirus 2, dose 0.078-10 µM
SARS-CoV-2 [9] = assay: Antiviral activity against SARS-COV-2 Omicron expressing S protein and co-expressing EGFP infected in African green monkey Vero E6 cells assessed as inhibition of S protein mediated membrane fusion at 10 uM incubated of 30 mins measured after 24 hrs by inverted fluorescence microscopic analysis; format: functional, organism-based; conditions: Severe acute respiratory syndrome coronavirus 2, time 24.5 hrs
[10] = tested on: Severe acute respiratory syndrome coronavirus 2; assay: Inhibition of 6-helical bundle formation in SARS-CoV-2 Spike protein HR1/HR2 domains in presence of HR-1P and HR2P at 20 uM incubated for 30 mins by circular dichroism spectroscopy assay
[11] = Stability of compound in rat plasma assessed as change in retention time of parent compound incubated for 180 mins by LC-MS/MS analysis; format: ADME, cell-free; conditions: 3 h
[12] = Metabolic stability in rat liver microsomes assessed as half life measured upto 250 mins by LC-MS/MS analysis; format: ADME, Microsome; conditions: 4.167 h

C=C(C)[C@@H]1CC[C@]2(C(=O)NCc3ccc4ccccc4c3)CC[C@]3(C)[C@H](CC[C@@H]4[C@@]5(C)CC[C@H](O[C@@H]6O[C@H](CO)[C@@H](O[C@@H]7O[C@@H](C)[C@H](O)[C@@H](O)[C@H]7O)[C@H](O)[C@H]6O[C@@H]6O[C@@H](C)[C@H](O)[C@@H](O)[C@H]6O)C(C)(C)[C@@H]5CC[C@]43C)[C@@H]12
EC50 (SARS-CoV-2 [1]): 2.67 µM
selectivity ratio [2]: 62.7
inhibition [3]: inactive
CC50 [4]: 167 µM

C=C(C)[C@@H]1CC[C@]2(C(=O)Nc3ccc4ccccc4c3)CC[C@]3(C)[C@H](CC[C@@H]4[C@@]5(C)CC[C@H](O[C@@H]6O[C@H](CO)[C@@H](O[C@@H]7O[C@@H](C)[C@H](O)[C@@H](O)[C@H]7O)[C@H](O)[C@H]6O[C@@H]6O[C@@H](C)[C@H](O)[C@@H](O)[C@H]6O)C(C)(C)[C@@H]5CC[C@]43C)[C@@H]12
CLH [5]: 1.15 µL/min/mg
Activity (SARS-CoV-2 [6]): inactive
EC50 (SARS-CoV-2 [1]): 0.82 µM
Activity (SARS-CoV-2 [7]): 90%
Kd (Spike glycoprotein): 3.26 µM
Activity (SARS-CoV-2 [8]): Dose-Dependent Effect
Activity (SARS-CoV-2 [9]): Active
inhibition [10]: inactive
Stability [11]: Stable
t1/2 [12]: 2.8202 h
selectivity ratio [2]: 73.6
inhibition [3]: inactive
CC50 [4]: 60.3 µM

C=C(C)[C@@H]1CC[C@]2(C(=O)Nc3ccccc3)CC[C@]3(C)[C@H](CC[C@@H]4[C@@]5(C)CC[C@H](O[C@@H]6O[C@H](CO)[C@@H](O[C@@H]7O[C@@H](C)[C@H](O)[C@@H](O)[C@H]7O)[C@H](O)[C@H]6O[C@@H]6O[C@@H](C)[C@H](O)[C@@H](O)[C@H]6O)C(C)(C)[C@@H]5CC[C@]43C)[C@@H]12
EC50 (SARS-CoV-2 [1]): 12.5 µM
selectivity ratio [2]: > 16
inhibition [3]: inactive
CC50 [4]: > 200 µM

C=C(C)[C@@H]1CC[C@]2(C(=O)Nc3cccc(Cl)c3)CC[C@]3(C)[C@H](CC[C@@H]4[C@@]5(C)CC[C@H](O[C@@H]6O[C@H](CO)[C@@H](O[C@@H]7O[C@@H](C)[C@H](O)[C@@H](O)[C@H]7O)[C@H](O)[C@H]6O[C@@H]6O[C@@H](C)[C@H](O)[C@@H](O)[C@H]6O)C(C)(C)[C@@H]5CC[C@]43C)[C@@H]12
EC50 (SARS-CoV-2 [1]): 6.63 µM
selectivity ratio [2]: 8.51
CC50 [4]: 56.4 µM

O=C(/C=C/c1ccc(O)c2oc(-c3ccc(O)c(O)c3)cc12)O[C@H](Cc1ccc(O)c(O)c1)C(=O)O
EC50 (SARS-CoV-2 [1]): 5.63 µM
selectivity ratio [2]: > 17.8
CC50 [4]: > 100 µM

C=C(C)[C@@H]1CC[C@]2(C(=O)N(C)c3ccccc3)CC[C@]3(C)[C@H](CC[C@@H]4[C@@]5(C)CC[C@H](O[C@@H]6O[C@H](CO)[C@@H](O[C@@H]7O[C@@H](C)[C@H](O)[C@@H](O)[C@H]7O)[C@H](O)[C@H]6O[C@@H]6O[C@@H](C)[C@H](O)[C@@H](O)[C@H]6O)C(C)(C)[C@@H]5CC[C@]43C)[C@@H]12
EC50 (SARS-CoV-2 [1]): 5.06 µM
selectivity ratio [2]: 13.7
CC50 [4]: 69.5 µM

C=C(C)[C@@H]1CC[C@]2(C(=O)NOc3ccccc3)CC[C@]3(C)[C@H](CC[C@@H]4[C@@]5(C)CC[C@H](O[C@@H]6O[C@H](CO)[C@@H](O[C@@H]7O[C@@H](C)[C@H](O)[C@@H](O)[C@H]7O)[C@H](O)[C@H]6O[C@@H]6O[C@@H](C)[C@H](O)[C@@H](O)[C@H]6O)C(C)(C)[C@@H]5CC[C@]43C)[C@@H]12
EC50 (SARS-CoV-2 [1]): 9.88 µM
selectivity ratio [2]: 11.7
CC50 [4]: 116 µM

C=C(C)[C@@H]1CC[C@]2(C(=O)Nc3ccccc3OC)CC[C@]3(C)[C@H](CC[C@@H]4[C@@]5(C)CC[C@H](O[C@@H]6O[C@H](CO)[C@@H](O[C@@H]7O[C@@H](C)[C@H](O)[C@@H](O)[C@H]7O)[C@H](O)[C@H]6O[C@@H]6O[C@@H](C)[C@H](O)[C@@H](O)[C@H]6O)C(C)(C)[C@@H]5CC[C@]43C)[C@@H]12
EC50 (SARS-CoV-2 [1]): 6.11 µM
selectivity ratio [2]: 13.6
CC50 [4]: 83.2 µM

C=C(C)[C@@H]1CC[C@]2(C(=O)Nc3ccc4ncccc4c3)CC[C@]3(C)[C@H](CC[C@@H]4[C@@]5(C)CC[C@H](O[C@@H]6O[C@H](CO)[C@@H](O[C@@H]7O[C@@H](C)[C@H](O)[C@@H](O)[C@H]7O)[C@H](O)[C@H]6O[C@@H]6O[C@@H](C)[C@H](O)[C@@H](O)[C@H]6O)C(C)(C)[C@@H]5CC[C@]43C)[C@@H]12
EC50 (SARS-CoV-2 [1]): 8.43 µM
selectivity ratio [2]: 8.25
CC50 [4]: 69.6 µM
